Laboratory results reported in paper doi:10.1101/2025.02.17.638454, “Synergistic RAS-MAPK and AKT Activation in MYC-Driven Tumors via Adjacent PVT1 Rearrangements” (bioRxiv, 2025).
No end group written: not given here.

Experiments:
KRAS dimerization = assay: Acceptor photobleaching FRET of CFP-KRAS/YFP-KRAS in D458; assay type: cell-based; conditions: shRNA1.PVT1ts D458 with doxycycline-induced HNB; n=10, one-way ANOVA
Procedure: pcDNA3.1 CFP-KRAS (#112717) and pcDNA3.1 YFP-KRAS (#112718) were purchased from Addgene. The plasmids were co-transfected into D458 cells in a 35 mm cell culture dish with glass bottom. The cells were imaged live 48 hours after transfection on the Nikon Super Resolution Confocal Microscope. CFP was excited using 405–445nm laser and YFP was excited using the 514 nm laser. YFP was photobleached at 80% power for 1 minute and the CFP and YFP were imaged after photobleaching using the respective laser and filters. The images were analyzed in Fiji, ImageJ. […]
bioRxiv preprint doi: https://doi.org/10.1101/2025.02.17.638454; this version posted February 22, 2025. The copyright holder for this preprint (which was not certified by peer review) is the author/funder, who has granted bioRxiv a license to display the preprint in perpetuity. It is made available under a CC-BY 4.0 International license .
Supplementary Figure 22: HNB regulates KRAS dimerization (A) Schematic representation of KRAS dimerization using acceptor photobleaching FRET assay. (B) Schematic representation of KRAS dimerization on knocking down HNB using shRNA1-PVT1ts. (C) Representative images showing signals for CFP-KRAS and YFP-KRAS. […]
Images were taken at 60X oil; the scale bar is 10µm. […] (p-value calculated by one-way ANOVA, n=10). […] (p-value calculated by one-way ANOVA, n=10). […]

HALLMARK_MYC_TARGETS = assay: GSEA MYC targets, SK-PN-DW; assay type: cell-based, human; conditions: si.CircPVT1 vs si.Ctrl, n=3, Padj = 0.010
Excerpt: RNAseq processing: Raw reads were mapped to the hg19 human reference genome using the STAR aligner (v.2.5.0a) 66. PCR-duplicated reads and low mapping quality reads (MQ score below 20) were removed using Picard tools and SAMtools, respectively. Aligned reads were counted using htseq-count (v.0.6.1p1) 69 and normalized according to size factors method from DESeq2 70. We used fold change ≥2 and FDR <0.05 as the determination of differentially expressed genes (DEG). […]
Supplementary Figure 9: Gene set enrichment analysis scores (GSEA) analysis for MYC targets genes in COLODM320 (A,B) and SK-PN-DW (C,D) treated with si.CircPVT 1. si.Ctrl was used as control . n=3, for each treatment condition .
(also on this page, place not known: Enrichment Score Enrichment Score si.CircPVT1. control. condition. Enrichment Score Enrichment Score .CC-BY licenseavailable preprintthis https://doi.org/10.1101/2025.02.17.638454doi:) […]

FFX = assay: Western blot of FFX in D458; assay type: cell-based, human; conditions: D458, siRNA vs si.Ctrl, anti-FFX antibody
Procedure: For whole-cell lysate, the cell pellet was resuspended in RIPA buffer (Cell Signaling Technologies, Danvers, MA) supplemented with a protease inhibitor cocktail (Cell Signaling Technologies) and incubated on ice for 20 minutes. The lysate was then centrifuged at 14,000 revolutions/minute for 10 minutes at 4°C, and the supernatant was harvested. Protein concentration was quantified by BCA Protein Assay Kit (Thermo Fisher Scientific) as per kit protocol. Next, 20 μg of whole-cell lysate was electrophoresed on a 4%–20% gradient polyacrylamide gel with SDS (Bio-Rad, Hercules, CA) and electroblotted onto polyvinylidene difluoride membranes (Bio-Rad). Membranes were blocked in Tris-buffered saline with 5% nonfat milk and 0.1% Tween and probed with antibodies. Bound proteins were detected with horseradish-peroxidase–conjugated secondary antibodies (Cell Signaling Technologies) and SuperSignal West Femto (Thermo Fisher Scientific). […]

Substance	CFP (donor) fluorescence after photobleaching of YFP (KRAS dimerization)	NES, HALLMARK_MYC_TARGETS_V1 (HALLMARK_MYC_TARGETS)	NES, HALLMARK_MYC_TARGETS_V2 (HALLMARK_MYC_TARGETS)	FFX protein expression (FFX)
MKTQLGAVKGFLHV [HNB]	mitigated the augmented CFP fluorescence			
si.CircPVT1: siRNA targeting the junction sequence of CircPVT1, 5’-UGGGCUUGAGGCCUGAUCUUU-3’ (other strand not given here)		-1.653	-1.789	significantly reduced the protein
